Laboratory results published in patent US20230416307A1, “[…] PEPTIDES FOR ENHANCING VIRAL PRODUCTION” (Synvivia, Inc., priority 2022, published 2023).
Ends that are not written are not given here.

Legend:
AAV2-GFP = assay: Transduction efficiency (TU:VG ratio) of AAV2-GFP packaged in cells expressing a CP; format: cell-based, adeno-associated virus; conditions: FIG. 23; CP plasmid 0.3 ng to 100 ng, versus control without CP
Source text: AAV2-GFP were harvested and assayed for biological and physical titer as described in FIG. 20
FIG. 24. […] This figure depicts the raw flow cytometry data used to determine the biological titer of AAV samples. This is an example of the data that was used to determine the biological titers in FIG. 23. The X-axis of each graph represents the forward light scattering (FSC) from flow cytometry. The Y-axis represents the GFP intensity of each cell. A 1000-fold dilution of AAV2-GFP particles produced either in the presence (A) or absence (B) of cyclic peptide were used to transduce HEK293 cells. A 1000-fold dilution of the preparation was used (e.g., without physical titer normalization) to ensure a direct, batch-to-batch comparison of the impact of cyclic peptide on viral packaging performance.
As used herein, the term “transduction efficiency” refers to the effectiveness (efficiency) of viral particles in delivering their genetic payload to the target cells. This efficiency may be represented by the transducing units to vector genomes ratio (TU:VG). Viral formulations with enhanced transduction efficiency can achieve greater numbers of DNA delivery events for the same number of DNA-containing viral particles. […] Enhanced transduction efficiency may be achieved by optimizing the cellular environment for viral production, leading to viral particles with improved capsid structure, viral particle biochemistry, or viral particle assembly. Increasing transduction efficiency refers to improvements in the TU:VG ratio, which encompasses both infectivity and biological titer.
• 1. A 100-mm cell culture dish was reseeded with 4.0×10^6 Hek293T cells in high glucose DMEM culture medium supplemented with 10% FBS. • 2. […] A jetOPTIMUS DNA transfection reagent i used during the transfection protocol (from Polyplus). • 3. 12-16 hours after transfection, media was replaced with low glucose DMEM culture medium supplemented with 1% FBS, 1×Glutamax, 10 mM HEPES, and 0.075% sodium bicarbonate. • 4. Cells and media were harvested 4 days after transfection and frozen in 1 mL aliquots. • 5. Frozen aliquots were thawed and lysed using AAVMax Lysis Reagent (Life Technologies, USA, A50520). 100 uL of AAVMax Lysis buffer was added to 900 uL of cell and media. Mixture was incubated for 2 hours with rotating. Debris was pelleted at 5,000xg for 15 minutes. AAV containing supernatant was collected. • 6. The physical and biological titers of the harvested AAV samples were determined by qPCR and biological viral titer measurement as described in Example 1.
Full, but non-functional viral particles represent a major manufacturing challenge for AAV gene therapies. At present, there is no process capable of purifying the functional viral particles from the full, but non-functional fraction.

Lentivirus [1] = assay: Lentivirus particle (physical) titer by Lenti-X GoStix Plus after packaging with a CP generator plasmid; format: cell-based; conditions: FIG. 25; generator plasmid 0.5, 5, 50 ng; normalised to six no-CP controls
Experimental: (§1) Cyclic peptides are used herein to improve viral titer and transduction efficiency during lentiviral production. Lentivirus was produced using Takara Bio lentivirus packaging kit either with (left panels) or without (right panels; bars labeled CTRL) a cyclic peptide generator plasmid. The cyclic peptides produced by different amounts (e.g., 0.5 ng, 5 ng and 50 ng) of corresponding generator plasmids were CSSLT (SEQ ID NO: 37), CGSTKS (SEQ ID NO: 43), CKYEE (SEQ ID NO: 40), CPYTD (SEQ ID NO: 44), CPLQVP (SEQ ID NO: 45). 5 ng plasmid experiment for CGSTKS (SEQ ID NO: 43) failed and is not shown. The virus was collected, and particle titers were enumerated using Takara Bio Lenti-X GoStix Plus quantitative lentiviral titer test. The biological titer was determined by transducing fresh HEK293 cells with the various lentiviral preparations (e.g., packaged with or without a cyclic peptide). The fold difference in particle titer and transduction unit titer is calculated by normalizing to the average of six control lentiviral transductions from packaging runs without cyclic peptide. The control (CTRL) conditions illustrate negligible noise.
This example illustrates methodologies for Cyclic peptide-enhanced lentiviral vector production. • 1) Cells were seeded at 4-5×10^6 cells per 10-cm plate, 24 hours prior to transfection, to achieve 80-90% confluence at the time of transfection. • 2) 7.0 μg of lentiviral vector plasmid DNA was diluted in sterile water to a volume of 600 μl along with a cyclic peptide generator that expresses a cyclic peptide. • 3) Titration of cyclic peptide plasmid DNA concentrations, from 0.5 ng to 50 ng, was used in this Example. However, the amount of required plasmid DNA depends on many factors, including the specific cyclic peptide being expressed, the cyclic peptide generator (e.g. more efficient cyclic peptide generators may need less DNA), and promoter strength (the pCMV promoter driving strong expression is used in this Example). • 4) Between 4-8 control conditions (depending on number of experimental conditions) were also prepared that are identical to the above, except that no cyclic peptide plasmid was added. • 5) This DNA was added to a tube of Lenti-X Packaging Single Shots and vortexed to mix. • 6) The mixture was incubated for 10 minutes at room temperature to allow the formation of nanoparticle complexes, then briefly centrifuged. • 7) The entire 600 μl of nanoparticle complex solution was added dropwise to the packaging cells, which were then rocked gently to mix. • 8) Lentiviral packaging. […] They were centrifuged or filtered to remove cellular debris, using a filter of cellulose acetate or polysulfone, not nitrocellulose. • 10) Virus production was verified and can be quantified using Lenti-X GoStix™ Plus or any other standard methodology. Then, the virus can be used to transduce target cells or stored at −80° C. • 11) Next, for each viral production condition (e.g., different cyclic peptide packaging conditions, CP dosages, and controls), a three order of magnitude serial dilution at 10-fold dilution steps was performed. • 12) All viral samples were then transduced, harboring a GFP transgene, into fresh HEK293 cells. • 13) After 3 days, the transduced cells were collected, and analyzed them by flow cytometry (see FIG. 26). • 14) Finally, the biological titer (flow cytometry) and physical titer (GoStix) were normalized to the no-CP control to determine the fold improvements in both viral titer and infectiousness. […]

Lentivirus [2] = assay: Lentivirus biological titer (flow cytometry of transduced HEK293 cells) after packaging with a CP generator plasmid; format: cell-based; conditions: for lentiviral biological (transduction unit) titer, fold difference to control: FIG. 25, generator plasmid 0.5, 5, 50 ng, HEK293 cells
Experimental: as §1
FIG. 26. Exemplary representative flow cytometry raw data illustrating that when cyclic peptide CGSTKS (SEQ ID NO: 43) is present during lentiviral production, the biological titer increases by over 8-fold compared to when the cyclic peptide is absent. This figure depicts the raw flow cytometry data used to determine the biological titer of lentiviral samples. This is an example of the data that was used to determine the lentiviral biological titers in FIG. 25. The X-axis of each graph represents the forward light scattering (FSC) from flow cytometry. The Y-axis represents the GFP intensity of each cell. A 100-fold dilution of Lentivirus with a GFP payload produced either in the presence (A) or absence (B) of cyclic peptide were used to transduce HEK293 cells. A 100-fold dilution of the preparation was used (e.g., without physical titer normalization) to ensure a direct, batch-to-batch comparison of the impact of the cyclic peptide on viral packaging performance. • Part A—Flow cytometry raw data (with minor forward and side scatter gating to remove irrelevant particles) of HEK293 transduced with a lentiviral preparation produced in the presence of cyclic peptide CGSTKS (SEQ ID NO: 43) generated from a plasmid constructed transduced into packaging cells at 0.5 ng. • Part B—Flow cytometry raw data (with minor forward and side scatter gating to remove irrelevant particles) of HEK293 transduced with a lentiviral preparation produced without cyclic peptide.
This example illustrates methodologies for Cyclic peptide-enhanced lentiviral vector production. • 1) Cells were seeded at 4-5×10^6 cells per 10-cm plate, 24 hours prior to transfection, to achieve 80-90% confluence at the time of transfection. • 2) 7.0 μg of lentiviral vector plasmid DNA was diluted in sterile water to a volume of 600 μl along with a cyclic peptide generator that expresses a cyclic peptide. • 3) Titration of cyclic peptide plasmid DNA concentrations, from 0.5 ng to 50 ng, was used in this Example. […]

AAV6 = assay: Single-site amino acid substitution scanning of CPs by enrichment score in AAV6; format: cell-based, adeno-associated virus; conditions: FIG. 29, relative to original CP
Source text: This plot visually depicts the functional impact of mutations on a particular cyclic peptide as measured by enrichment score. The heatmap provides valuable insights into the mutational landscape of cyclic peptides, highlighting positions where certain amino acid substitutions are either not tolerated (e.g., resulting in depletion), are neutral (e.g., resulting in similar enrichment scores), or are favored (e.g., resulting in higher enrichment, indicating enhanced cyclic peptide variants).
The heatmap is structured with rows indicating the position of the original amino acid, while the columns represent the position of the mutated amino acid (for a given row). The X-axis corresponds to the 20 natural amino acid substitutions for a given cyclic peptide residue index. The Y axis represents the amino acids present in a specific cyclic peptide, starting from the top with the “scar” residue from the peptide cyclization splicing reaction of DNA expressed cyclic peptides. The scar residue is typically amino acids containing a nucleophilic side chain like cysteine, serine, or threonine. Each row is labeled by the native amino acid of a given CP with amino acid positions going from top to bottom (e.g. index 1 is at the top, followed by index 2 followed by, index 3, etc. . . . ). The final amino acid at the bottom cyclizes with the scar residue at top. […]

Substance | transduction efficiency of AAV2-GFP produced in the presence of CP (AAV2-GFP) | lentiviral physical (particle) titer, fold difference to control (Lentivirus [1]) | lentiviral biological (transduction unit) titer, fold difference to control (Lentivirus [2]) | enrichment factor of single-site substitution variant (AAV6) | increase of lentiviral biological titer (Lentivirus [2]; FIG. 26, generator plasmid at 0.5 ng, 100-fold dilution on HEK293 cells, versus no CP)
CKYEE: engineered cyclic peptide, SEQ ID NO: 40 (also: cyclic, closure not given here) | improvements in transduction efficiency | unexpected degree of improvement | unexpected degree of improvement |  | 
Ser2Pro: CSSLT with serine in residue index 2 substituted with proline (CPSLT; cyclic; Cyclic peptide that was found to enhance AAV TU:VG ratio and lentiviral titer.) |  |  |  | substantially increased enrichment factors | 
CSSLT: engineered cyclic peptide, SEQ ID NO: 37 (also: cyclic, closure not given here) | improvements in transduction efficiency | unexpected degree of improvement | unexpected degree of improvement |  | 
CPLQVP: engineered cyclic peptide, SEQ ID NO: 45 (also: cyclic, closure not given here) |  | unexpected degree of improvement | unexpected degree of improvement |  | 
CGSTKS: engineered cyclic peptide, SEQ ID NO: 43 (also: cyclic, closure not given here) |  | unexpected degree of improvement | unexpected degree of improvement |  | over 8 fold
CPYTD: engineered cyclic peptide, SEQ ID NO: 44 (also: cyclic, closure not given here) |  | unexpected degree of improvement | unexpected degree of improvement |  | 
